The source made the active and inactive calls. The rule behind the calls is not given here.
Key:
[1] = Selectivity index, ratio of CC50 for human HepG2.2.15 cells to IC50 for HBV infected in human HepG2.2.15 cells assessed as inhibition of viral DNA replication; type: toxicity, cell-based
[2] = Selectivity index, ratio of CC50 for human HepG2.2.15 cells to IC50 for HBsAg secretion in human HepG2.2.15 cells; type: toxicity, cell-based; conditions: HepG2.2.15 cells, read-out: Ratio CC50/IC50
PBMC [3] = experiment: Induction of TNF-alpha production in human PBMC cells incubated for 24 hrs by ELISA; type: functional, cell-based; conditions: dose 0.4-10 µM
Hepatitis B virus [4] = experiment: (§1) Antiviral activity against HBV infected in human HepG2.2.15 cells assessed as inhibition of viral DNA replication at 4 uM pre-transfected cells with viral genome followed by compound treatment for 72 hrs by RT-PCR analysis relative to control; type: functional
[5] = Half life in Sprague-Dawley rat at 10 mg/kg, IG measured for 12 hrs by UPLC-MS/MS analysis; type: ADME, organism-based; conditions: in vivo, po
Hepatitis B virus [6] = experiment: as §1, with “6 days with replacement of medium containing compound on every 2 days” for “72 hrs”; type: functional; conditions: HepG2.2.15, 144 h, time 6 day
PBMC [7] = experiment: Induction of IL-2 production in human PBMC cells incubated for 24 hrs by ELISA; type: functional, cell-based; conditions: dose 0.4-10 µM
[8] = Cmax in Sprague-Dawley rat at 10 mg/kg, IG measured for 12 hrs by UPLC-MS/MS analysis; type: ADME, organism-based; conditions: in vivo, po
HEK-293T = experiment: Effect on NF-kappaB/Renilla luciferase expression in HEK293T cells at 0.4 to 10 uM incubated for 48 hrs by Dual-luciferase reporter gene assay; type: functional, cell-based; conditions: Homo sapiens, dose 0.4-10 µM
Toll-like receptor 7 = biological target: T1, Toll-like receptor 7 (Homo sapiens, UniProt Q9NYK1); experiment: Binding affinity to recombinant human TLR7 assessed as dissociation constant by SPR analysis
T1 sequence (Q9NYK1 whole entry): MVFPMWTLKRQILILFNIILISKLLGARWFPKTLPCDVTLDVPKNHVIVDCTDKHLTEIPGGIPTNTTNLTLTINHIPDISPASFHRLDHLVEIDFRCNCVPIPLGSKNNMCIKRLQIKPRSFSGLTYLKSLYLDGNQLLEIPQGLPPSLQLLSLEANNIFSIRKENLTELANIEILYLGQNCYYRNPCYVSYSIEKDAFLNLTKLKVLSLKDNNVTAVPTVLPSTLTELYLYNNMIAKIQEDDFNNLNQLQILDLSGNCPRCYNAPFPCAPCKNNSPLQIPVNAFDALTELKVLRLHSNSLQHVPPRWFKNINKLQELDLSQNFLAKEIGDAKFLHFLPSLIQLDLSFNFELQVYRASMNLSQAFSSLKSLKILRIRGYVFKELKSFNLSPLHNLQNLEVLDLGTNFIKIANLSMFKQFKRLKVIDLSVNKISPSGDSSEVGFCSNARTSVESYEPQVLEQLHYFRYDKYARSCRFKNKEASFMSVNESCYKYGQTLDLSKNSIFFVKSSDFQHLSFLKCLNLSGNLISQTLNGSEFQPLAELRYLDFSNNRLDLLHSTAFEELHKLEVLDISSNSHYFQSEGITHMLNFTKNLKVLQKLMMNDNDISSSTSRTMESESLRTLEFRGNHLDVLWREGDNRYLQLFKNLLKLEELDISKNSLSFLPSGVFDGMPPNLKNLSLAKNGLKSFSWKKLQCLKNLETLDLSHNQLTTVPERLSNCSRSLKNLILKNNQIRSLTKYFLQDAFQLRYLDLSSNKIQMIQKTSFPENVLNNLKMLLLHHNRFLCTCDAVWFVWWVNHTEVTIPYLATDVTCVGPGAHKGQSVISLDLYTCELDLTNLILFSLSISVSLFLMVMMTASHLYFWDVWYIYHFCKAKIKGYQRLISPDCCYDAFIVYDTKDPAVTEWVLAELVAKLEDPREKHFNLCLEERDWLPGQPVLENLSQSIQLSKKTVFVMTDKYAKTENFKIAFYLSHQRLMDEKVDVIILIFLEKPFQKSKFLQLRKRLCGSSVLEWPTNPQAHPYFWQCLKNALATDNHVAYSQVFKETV

[9] = Selectivity index, ratio of CC50 for human HepG2.A64 cells to IC50 for HBV infected in human HepG2.A64 cells assessed as inhibition of viral DNA replication; type: toxicity, cell-based; conditions: read-out: Ratio CC50/IC50
[10] = AUClast in Sprague-Dawley rat at 10 mg/kg, IG measured for 12 hrs by UPLC-MS/MS analysis; type: ADME, organism-based; conditions: in vivo, po
[11] = biological target: T2, Toll-like receptor 7 (Homo sapiens) (UniProt Q9NYK1); experiment: Agonist activity at human TLR7 expressed in HEK293T cells co-transfected with NF-kappaB/Renilla luciferase incubated for 48 hrs by Dual-luciferase reporter gene assay; type: cell-based; conditions: filed as agonist, dose 0.4-10 µM
T2 sequence (whole entry): T1 sequence (Q9NYK1 whole entry)

PBMC [12] = experiment: Induction of IFN-alpha production in human PBMC cells incubated for 24 hrs by ELISA; type: functional, cell-based; conditions: dose 0.4-10 µM
[13] = Tmax in Sprague-Dawley rat at 10 mg/kg, IG measured for 12 hrs by UPLC-MS/MS analysis; type: ADME, organism-based; conditions: in vivo, po
Hepatitis B virus [14] = experiment: Antiviral activity against HBV infected in human HepG2.2.15 cells assessed as inhibition of viral DNA replication pre-transfected cells with viral genome followed by compound treatment for 6 days with replacement of medium containing compound on every 2 days by RT-PCR analysis; type: functional, organism-based
[15] = Inhibition of HBsAg secretion in human HepG2.2.15 cells treated for 6 days with replacement of medium containing compound on every 2 days by […]; type: functional, cell-based; conditions: HepG2 2.2.15
[16] = Cytotoxicity against human HepG2.A64 cells incubated for 72 hrs by CCK8 assay; type: toxicity, cell-based
[17] = Cytotoxicity against human HepG2.2.15 cells incubated for 72 hrs by CCK8 assay; type: toxicity, cell-based, HepG2 2.2.15
Hepatitis B virus [18] = experiment: Antiviral activity against HBV infected in human HepG2.A64 cells assessed as inhibition of viral DNA replication pre-transfected cells with viral genome followed by compound treatment for 3 days by RT-PCR analysis; type: functional, organism-based; conditions: HepG2.A64, 72 h
Hepatitis B virus [19] = experiment: Antiviral activity against HBV infected in LAM/ETV-resistant human HepG2.A64 cells assessed as inhibition of viral DNA replication at 4 uM pre-transfected cells with viral genome followed by compound treatment for 72 hrs by RT-PCR analysis relative to control; type: functional

In the case of `O=C(Cc1csc(COc2ccccc2F)n1)N1CCc2ccccc21`, the “Ratio CC50/IC50” value [1] is reported as > 384.62, the selectivity ratio ([1]; HepG2.2.15 cells, read-out: Ratio CC50/IC50) is reported as > 384 and the selectivity ratio [2] is reported as > 1.93. The Activity (PBMC [3]) was “Dose-Dependent Effect”, the inhibition at 4 µM (Hepatitis B virus [4]) was 71.7% and the half-life [5] was 2 h. For the same compound, the inhibition at 4 µM (Hepatitis B virus [6]) was 69.2%, the Activity (PBMC [7]) was “Dose-Dependent Effect” and the Cmax [8] was 66 ng/mL. The Activity (HEK-293T) was “Active”, the Kd (Toll-like receptor 7) was 7.06 µM and the selectivity ratio [9] was > 55.6. The AUC(0-t) at 12 h [10] was 252 ng·h/mL, the Activity [11] was “Dose-Dependent Effect” and the Activity (PBMC [12]) was “Dose-Dependent Effect”. It also gave a Tmax [13] of 2 h, an IC50 (Hepatitis B virus [14]) of 0.13 µM and an IC50 [15] of 25.9 µM. The CC50 at 72 h [16] was > 20 µM, the CC50 at 72 h [17] was > 50 µM and the IC50 (Hepatitis B virus [18]) was 0.36 µM. It also gave an inhibition at 4 µM (Hepatitis B virus [19]) of 74.2%.
